In article PMC5650372 (Oncotarget, 2017):

How the values were obtained:
pDNA-PK S2056 = test: Western blot of cell-free NHEJ reaction (MCF7 nuclear extract); format: biochemical, human
Method: (§1) Nuclear protein (10-20 μg) prepared above was pre-treated with compounds as indicated on ice for 15 minutes. Twenty-five nanograms of EcoRI-digested pBluescript DNA (Stratagene, La Jolla, CA) were then added and the mixture was adjusted to 20 μL final volume in NHEJ buffer (50 mM Hepes-KOH pH 8.0, 40 mM KOAc, 1 mM Mg(OAc)2, 1 mM ATP, 0.1 mg/mL BSA, and 1 mM DTT). After incubation at 25°C for 60 minutes, the reaction was terminated by incubation with 1 μg/mL RNase A for 10 minutes followed by treatment with 2 mg/mL Protease K in 0.5% SDS at 55°C for 30 minutes. The reactions were run onto 0.8% agarose and the gel was stained with Sybr Green (S756, Invitrogen, Carlsbad, CA). For Western blots, an aliquot of the same reaction mixture described above was subjected to SDS-PAGE, transferred to the PVDF membrane, and immunoblotted with indicated antibodies.

pChk2 T68 = test: as above; format: biochemical, human; conditions: MCF7 nuclear extract, 0.05, 0.5 or 5 μM
Method: as §1

pATM S1981 = test: as above; format: biochemical, human; conditions: MCF7 nuclear extract with linear dsDNA
Method: as §1

[1] = tested on: NCI-H1975 and SW1573 cells; test: Clonogenic assay alone or with etoposide; format: cell-based, human
Method: Media were changed every three days. Plates were incubated for a total of about two weeks then fixed and stained using the DIFF QUIK staining kit. Colonies were imaged and counted.

[2] = tested on: pATM S1981 and pNbs1 S343 in HT29 and MDA-MB-436 cells; test: Immunoblotting of intact cells with bleomycin; format: cell-based, human; conditions: 5 μM with 1.5 mU/mL bleomycin, 2 or 12 hours
[3] = tested on: NHEJ in intact cells of different cell lines; test: Cellular NHEJ assay, summary over cell lines; format: cell-based; conditions: Homo sapiens; range over different cell lines (Table 1); read-out: potency against NHEJ in intact cells
Method: deficient cell growth in vitro […]
incorporated in the corresponding no inhibitor control mTOR, DNA-PK and PI3K-alpha assays were to determine percent inhibition. An IC50 value was then performed as reported previously. estimated.
ATM and ATR assay and IC50 determination Cellular NHEJ assay
HA-ATM and FLAG-ATR (HA-labeled ATM, and The experimental design is illustrated in FLAG-labeled ATR) were each transiently expressed in Supplementary Figure 4. Cal-51 breast cancer cells HEK293 cells (293FT cells, Invitrogen Cat: R700-07) were separately transfected with pEGFP plasmid (6085-using Lipofectamine as transfection reagent. Cells were 1, Clontech, Mountain View, CA) digested with either harvested 6 days post transfection and spun down to EcoRI (to measure NHEJ) or StuI (to measure transfection separate cells from media. Cells were then lysed using a efficiency) using a Amaxa cell line nuclearfector kit V lysis buffer (50 mM Tris buffer, (Tris(hydroxylmethyl)- (CCA-1003, Lonza). Immediately after the transfection, aminomethane, pH 7.5), 100 mM NaCl, 50 mM βGOP, the cells were treated with DMSO or compounds at 10% Glycerol, 0.5% Tween 20, 1 mM EDTA, 25 mM indicated concentrations for 24 hours and GFP-positive sodium fluoride (NaF), 20 nM microcystine, 2 mM cells were counted under a fluorescent microscope. […]

[4] = tested on: pAKT S473 in NCI-H441 cells; test: Western blot quantitation of pAKT S473 (mTORC2 biomarker); format: cell-based; conditions: Homo sapiens; NCI-H441, presence of bleomycin, 2 hrs, n=3; read-out: IC50 of pAKT S473 inhibition
NHEJ activity = test: Reconstituted cell-free NHEJ assay (MCF7 nuclear extract); format: biochemical, human
Method: MCF7 human breast cancer cells (5-10 x 10^7 each) were incubated in 5 pellet volumes of cold hypotonic buffer (10 mM Hepes-KOH, pH 7.5, 1.5 mM MgCl2, 5 mM KCl, and 0.5 mM DTT) for 20 minutes and were homogenized in a tight-fitting glass dounce homogenizer for 10-20 strokes. The nuclei were then collected by low-speed centrifugation and nuclear proteins were extracted by high-salt buffer (50 mM Tris-HCl, pH 7.5, 1 M KCl, 2 mM EDTA, 1 mM DTT, and protease inhibitors). The extracted nuclear proteins were dialyzed against 1 L of dialysis buffer (20 mM Tris-HCl, pH 8.0, 20% glycerol, 0.1 M KOAc, 0.5 mM EDTA, and 1 mM DTT) for 1 hour and were used for the in vitro NHEJ assay.
as §1

[5] = tested on: panel of 123 cancer cell lines; test: Proliferation assay, whole panel; format: cell-based; conditions: Homo sapiens; range over 123 cell lines; read-out: GI50 values across the cancer cell line panel
Method: Proliferation assays were performed as previously described. […] The concentration of compound required for a 2-fold induction of Caspase was determined (CalX).

[6] = tested on: pDNA-PK S2056 in NCI-H441 cells; test: Western blot quantitation of pDNA-PK S2056; format: cell-based, human
Method: (§2) The cell lysates were subjected to SDS-PAGE and immunoblotting with indicated antibodies. […] The pDNA-PK bands were quantified by Odyssey imaging software (LI-COR, Lincoln, NE) and normalized to total DNA-PK. IC50 values were determined by Excelfit (London, UK).

[7] = tested on: pDNA-PK S2056 in HT29 and MDA-MB-436 cells; test: Immunoblotting of intact cells with bleomycin; format: cell-based, human; conditions: 5 μM with 1.5 mU/mL bleomycin, 2 or 12 hours
Method: as §2

Structure (SMILES): CCN1C(=O)CNc2ncc(-c3ccc(-c4nc[nH]n4)nc3C)nc21 [CC-115, 1-ethyl-7-(2-methyl-6-(1H-1,2,4-triazol-3-yl)pyridin-3yl)-3,4-dihydropyrazino[2,3-b]pyrazin-2(1H)-one]
- inhibition of pDNA-PK S2056, cell-free (pDNA-PK S2056): inhibited
- inhibition of pChk2 T68, cell-free (pChk2 T68): also inhibited
- inhibition of pATM S1981, cell-free (pATM S1981): reduction
- combination with 6.8 μM etoposide on colony formation greater than additive ([1]; 0.1 μM compound, 4 hours): not
- combination with 6.8 μM etoposide on colony formation ([1]; 10 μM compound, 4 hours): synergistic effect
- effect on cell survival, single agent ([1]; 4 hours treatment alone): minimal effect on cell survival
- ATM activity (pATM S1981 and pNbs1 S343) [2]: significantly inhibited
- IC50 [3]: 1000 to 7000 nM
- IC50 [4]: 136 ± 62 nM
- inhibition of NHEJ activity, cell-free (NHEJ activity; 0.5 μM): Partial inhibition
- inhibition of NHEJ activity, cell-free (NHEJ activity; 5 μM): complete inhibition
- GI50 [5]: 15 to 1770 nM
- IC50 ([6]; Homo sapiens, NCI-H441, presence of bleomycin, 2 hrs, n=3, read-out: IC50 of pDNA-PK S2056 inhibition): 2600 ± 450 nM
- cellular activity against DNA-PK weaker than against mTOR kinase ([6]; NCI-H441): ~16 fold
- DNA-PK activity (pDNA-PK S2056) [7]: significantly inhibited
